In patent publication US20070270418A1, “Inhibitors of P38 and Methods of Using the Same” (priority 2003, published 2007):
Like-named read-outs stand apart in the source and are kept apart here.

Key:
[1] = biological target: T1, p38α (Homo sapiens, UniProt Q16539); assay: p38 MAP Kinase assay, ATF2 phosphorylation (ELISA); type: biochemical; conditions: 40 μM ATP
T1 construct: p38 MAP Kinases are recombinant human full-length proteins with an amino-terminal GST fusion; GST (N); purchased Upstate (Charlottesville, Va.); host or cells: E. coli
In short: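 Recombinant full-length GST-tagged human p38α (6 ng) pre-incubated 15 min at room temperature with compound, then reacted 30 min at 37° C with 40 μM ATP and 1.25 μM GST-ATF2 (aa 19-96) in HEPES pH 7.5/MgCl2 buffer. EDTA stop; ATF2 Thr69 phosphorylation measured by anti-phospho-ATF2 ELISA at 450 nm.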

[2] = tested on: TNFα release from THP-1 cells; assay: TNFα release from LPS-stimulated THP-1 cells; type: cell-based
Text: Compounds of the invention are screened for the ability to inhibit TNFα and IL-1β release from THP-1 cells stimulated with lipopolysaccharide (LPS) in vitro. The ability of compounds to inhibit TNFα and IL-1β release in this in vitro assay is correlated with the inhibition of p38 activity and TNFα and IL-1β expression in vivo, and is therefore an indicator of potential in vivo therapeutic activity (Lee J. C. et al, Ann. N.Y. Acad. Sci. 696: 149-170, 1993 and Nature, 372: 739-746, 1994).
THP-1 cells from ATCC (TIB202) are maintained at 37° C., 5% CO2 in RPMI 1640 media (MediaTech, Herndon, Va.) containing 4.5 g/L glucose, supplemented with 10% fetal bovine serum, 1% penicillin/streptomycin and 50 μM β-mercaptoethanol.
Test compounds are initially dissolved in RPMI media with 1% DMSO (v/v). Compounds are then serially diluted in RPMI media for all subsequent dilutions. The assay is performed under sterile conditions. THP-1 cells at a culture density of 6-8×10^5 cells/ml are collected and resuspended in the RPMI media at 10^6 cells/ml. 100 μl of resuspended cells are added to each well, which contain 100 μl of a test compound. Test compounds are prepared at twice the final concentration. Final DMSO concentration is no more than 0.5% (v/v). Cells are preincubated with compound for 30 minutes at 37° C., 5% CO2 prior to stimulation with lipopolysaccharide (LPS) (Sigma L-2880, 4 mg/ml stock in PBS). The final LPS concentration in each well is 10 or 30 μg/ml for TNFα and IL-1β release, respectively. Unstimulated control cell suspensions receive PBS vehicle only. Cell mixtures are incubated for 18 or 48 hours for TNFα and IL-1β release, respectively. 150 μl of supernatants are taken and transferred to a fresh plate and stored at −20° C. until further analysis.

[3] = Homo sapiens, THP-1, 18 h, LPS 10 μg/ml, 18 hours, read-out: TNFα (THP-1) IC50

T1 sequence (Q16539 whole entry, the tested form may be a part): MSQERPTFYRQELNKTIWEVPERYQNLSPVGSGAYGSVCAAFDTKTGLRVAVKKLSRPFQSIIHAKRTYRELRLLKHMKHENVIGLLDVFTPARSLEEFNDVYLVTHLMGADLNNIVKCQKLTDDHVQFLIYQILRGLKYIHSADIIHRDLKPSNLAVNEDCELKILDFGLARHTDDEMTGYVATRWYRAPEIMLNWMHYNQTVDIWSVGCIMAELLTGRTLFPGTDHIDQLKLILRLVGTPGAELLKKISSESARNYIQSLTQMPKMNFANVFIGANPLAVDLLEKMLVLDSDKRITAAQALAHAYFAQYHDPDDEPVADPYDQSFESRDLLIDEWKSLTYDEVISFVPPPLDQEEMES

SMILES | IC50 [1] [nM] | IC50 [2, 3] [nM] | IC50 ([2]; Homo sapiens, THP-1, 18 h, read-out: TNFα (THP-1) IC50 (nM)) [nM] | IC50 ([2]; LPS 10 μg/ml, 18 hours, read-out: TNFα (THP-1) IC50) [nM]
CCOC(=O)N1CCC(Nc2nccc(-c3c(-c4ccc(F)cc4)nc4sccn34)n2)CC1 [CCXVII] | 1.19 | 7.84 |  | 
CCCNc1nccc(-c2c(-c3ccc(F)cc3)nc3sccn23)n1 [CCXVI] | 4.68 | 5.15 |  | 
COCC(C)Nc1nccc(-c2c(-c3ccc(F)cc3)nc3sccn23)n1 (centres unmarked) [CCXV] | 2.32 | 8.58 |  | 
CCCC[C@@H](CO)Nc1nccc(-c2c(-c3ccc(F)cc3)nc3sccn23)n1 [CCXXII] | 5.45 | 49.6 |  | 
O[C@H]1CC[C@H](Nc2nccc(-c3c(-c4ccc(F)cc4)nc4sccn34)n2)CC1 [CCXXI] | 1.57 | 5.56 |  | 
CC(C)(C)OC(=O)N1CCC(Nc2nccc(-c3c(-c4ccc(F)cc4)nc4sccn34)n2)CC1 [CCXXXIII, 4-{4-[6-(4-fluorophenyl)-imidazo[2,1-b]thiazol-5-yl]-pyrimidin-2-ylamino}-piperidine-1-carboxylic acid tert-butyl ester] | 2.24 | 76.9 |  | 
CC(C)[C@H](CO)Nc1nccc(-c2c(-c3ccc(F)cc3)nc3sccn23)n1 [CCXXXII] | 2.06 | 11.1 |  | 
Oc1ccc(CCNc2nccc(-c3c(-c4ccc(F)cc4)nc4sccn34)n2)cc1 [CCXXXIX] | 5.82 | 21 |  | 
CC(C)[C@@H](CO)Nc1nccc(-c2c(-c3ccc(F)cc3)nc3sccn23)n1 [CCXXXI] | 1.13 | 5.67 |  | 
CC(C)(C)OC(=O)N1CCC(CNc2nccc(-c3c(-c4ccc(F)cc4)nc4sccn34)n2)CC1 [CCXXXVIII] | 87.6 | 162 |  | 
CC(C)(C)OC(=O)N1CCCCC1CNc1nccc(-c2c(-c3ccc(F)cc3)nc3sccn23)n1 (centres unmarked) [CCXXXVII] | 107 | 113 |  | 
CC(C)(C)OC(=O)N1CCCC(CNc2nccc(-c3c(-c4ccc(F)cc4)nc4sccn34)n2)C1 (centres unmarked) [CCXXXVI] | 81.8 | 162 |  | 
CC[C@H](CO)Nc1nccc(-c2c(-c3ccc(F)cc3)nc3sccn23)n1 [CCXXXV] | 2.08 | 2.95 |  | 
CC(C)(CO)CNc1nccc(-c2c(-c3ccc(F)cc3)nc3sccn23)n1 [CCXX] | 1.56 | 2.41 |  | 
COc1cccc(-c2nc3sccn3c2-c2ccnc(N[C@H](CO)C(C)C)n2)c1 [CC] | 112 | 93.8 |  | 
CC(C)[C@H](CO)Nc1nccc(-c2c(-c3ccc(F)cc3)nc3occn23)n1 [CIII] | 7.57 | 20 |  | 
C[C@H](O)[C@H](CO)Nc1nccc(-c2c(-c3ccc(F)cc3)nc3occn23)n1 [CIV] | 8.62 |  | 6 | 
CCC(CO)(CO)Nc1nccc(-c2c(-c3ccc(F)cc3)nc3occn23)n1 [CIX] | 30.5 | 19.8 |  | 
CCOc1nccc(-c2c(-c3ccc(F)cc3)nc3sccn23)n1 [CLI] | 122 | 284 |  | 
COc1nccc(-c2c(-c3ccc(F)cc3)nc3sccn23)n1 [CLV] | 286 | 402 |  | 

SMILES | IC50 [1] [nM] | IC50 [2, 3] [nM] | IC50 ([2]; Homo sapiens, THP-1, 18 h, read-out: TNFα (THP-1) IC50 (nM)) [nM] | IC50 ([2]; LPS 10 μg/ml, 18 hours, read-out: TNFα (THP-1) IC50) [nM]
CC(C)C(CO)Nc1nccc(-c2c(-c3ccc(F)cc3)nc3sccn23)n1 (centres unmarked) [CLXXII] | 4.67 | 48.1 |  | 
COC(=O)[C@@H](CC(C)C)Nc1nccc(-c2c(-c3ccc(F)cc3)nc3sccn23)n1 [CLXXI] | 14.9 | 3970 |  | 
OC[C@H](Cc1ccccc1)Nc1nccc(-c2c(-c3ccc(F)cc3)nc3sccn23)n1 [CLXXXI] | 176 | 138 |  | 
CCC(CO)(CO)Nc1nccc(-c2c(-c3ccc(F)cc3)nc3sccn23)n1 [CLXXX] | 80.8 | 57.4 |  | 
Fc1ccc(-c2nc3sccn3c2-c2ccnc(OCC3CC3)n2)cc1 [CL] | 256 | 218 |  | 
CCC[C@@H](CO)Nc1nccc(-c2c(-c3ccc(F)cc3)nc3occn23)n1 [CVIII] | 3.11 | 11.7 |  | 
C[C@@H](O)[C@@H](CO)Nc1nccc(-c2c(-c3ccc(F)cc3)nc3occn23)n1 [CVII] | 63.8 | 112 |  | 
CCC[C@H](CO)Nc1nccc(-c2c(-c3ccc(F)cc3)nc3occn23)n1 [CVI] | 5.2 | 30.6 |  | 
C[C@H](CO)Nc1nccc(-c2c(-c3ccc(F)cc3)nc3occn23)n1 [CV] | 3.09 | 8.67 |  | 
CC(CO)Nc1nccc(-c2c(-c3ccc(F)cc3)nc3sccn23)n1 (centres unmarked) [CXCIII] | 6.19 | 8.38 |  | 
COc1ccc(CCNc2nccc(-c3c(-c4ccc(F)cc4)nc4occn34)n2)cc1 [CXIII] | 7.88 | 127 |  | 
Oc1ccc(CCNc2nccc(-c3c(-c4ccc(F)cc4)nc4occn34)n2)cc1 [CXII] | 3.45 | 13.1 |  | 
Fc1ccc(-c2nc3occn3c2-c2ccnc(NCc3nc4ccccc4[nH]3)n2)cc1 [CXIV] | 183 | 913 |  | 
CCCC[C@H](CO)Nc1nccc(-c2c(-c3ccc(F)cc3)nc3occn23)n1 [CXI] | 11.2 | 65.9 |  | 
Fc1ccc(CNc2nccc(-c3c(-c4ccc(F)cc4)nc4sccn34)n2)cc1 [CXLIV] | 54.1 | 182 |  | 
Fc1ccc(-c2nc3sccn3c2-c2ccnc(OCc3ccccc3)n2)cc1 [CXLIX] | 152 | 391 |  | 
CC(C)(CO)Nc1nccc(-c2c(-c3ccc(F)cc3)nc3occn23)n1 [CXVIII] | 2.91 | 26.3 |  | 
OC1(CNc2nccc(-c3c(-c4ccc(F)cc4)nc4occn34)n2)CCCCC1 [CXVII] | 20.6 | 47 |  | 
Fc1ccc(-c2nc3occn3c2-c2ccnc(NCCN3CCCCC3)n2)cc1 [CXVI] | 236 | 376 |  | 
Nc1ccc(CCNc2nccc(-c3c(-c4ccc(F)cc4)nc4occn34)n2)cc1 [CXV] | 1.73 | 41.9 |  | 

SMILES | IC50 [1] [nM] | IC50 [2, 3] [nM] | IC50 ([2]; Homo sapiens, THP-1, 18 h, read-out: TNFα (THP-1) IC50 (nM)) [nM] | IC50 ([2]; LPS 10 μg/ml, 18 hours, read-out: TNFα (THP-1) IC50) [nM]
OC1(CNc2nccc(-c3c(-c4ccc(F)cc4)nc4occn34)n2)CCCc2ccccc21 (centres unmarked) [CXXIII] | 27.2 | 99 |  | 
NS(=O)(=O)c1ccc(CCNc2nccc(-c3c(-c4ccc(F)cc4)nc4occn34)n2)cc1 [CXXII] | 5.44 | 22.7 |  | 
CC(CN(C)C)Nc1nccc(-c2c(-c3ccc(F)cc3)nc3occn23)n1 (centres unmarked) [CXXIV] | 59.6 | 67.7 |  | 
Fc1ccc(CCNc2nccc(-c3c(-c4ccc(F)cc4)nc4occn34)n2)cc1 [CXXI] | 11.2 | 26.4 |  | 
NC(=O)[C@H](Cc1ccccc1)Nc1nccc(-c2c(-c3ccc(F)cc3)nc3occn23)n1 [CXXVIII] | 71 | 1390 |  | 
CC(C)(Nc1nccc(-c2c(-c3ccc(F)cc3)nc3occn23)n1)C(O)c1ccccc1 (centres unmarked) [CXXVII] | 28.5 | 249 |  | 
C[C@@H](Nc1nccc(-c2c(-c3ccc(F)cc3)nc3occn23)n1)C(N)=O [CXXVI] | 29.4 | 86.1 |  | 
Fc1ccc(-c2nc3occn3c2-c2ccnc(NCCN3CCN(Cc4ccccc4)CC3)n2)cc1 [CXXV] | 258 | 1360 |  | 
CS(=O)(=O)c1nccc(-c2c(-c3ccccc3)nc3sccn23)n1 [CXXXII] | 373 | > 10000 |  | 
OC(CNc1nccc(-c2c(-c3ccc(F)cc3)nc3occn23)n1)COc1ccccc1 (centres unmarked) [CXX] | 36.5 | 171 |  | 
OC1CCCCC1Nc1nccc(-c2c(-c3ccc(F)cc3)nc3occn23)n1 (centres unmarked) [CX] | 21.8 | 15 |  | 
CC(C)Nc1nccc(-c2c(-c3ccc(F)cc3)nc3occn23)n1 [C] | 0.893 | 3.19 |  | 
Fc1ccc(-c2nc3occn3c2-c2ccnc(NCCCN3CCOCC3)n2)cc1 [LIII] | 361 | 236 |  | 
OC(CNc1nccc(-c2c(-c3ccc(F)cc3)nc3occn23)n1)c1ccccc1 (centres unmarked) [LII] | 54.5 |  |  | 60.9
OCC1(Nc2nccc(-c3c(-c4ccc(F)cc4)nc4occn34)n2)CCCC1 [LIV] | 30.2 | 11.8 |  | 
O[C@H]1CC[C@H](Nc2nccc(-c3c(-c4ccc(F)cc4)nc4occn34)n2)CC1 [LIX] | 1.79 | 55.4 |  | 
Fc1ccc(-c2nc3occn3c2-c2ccnc(NCCc3ccncc3)n2)cc1 [LI] | 8.06 | 94.4 |  | 
O[C@H]1Cc2ccccc2[C@H]1Nc1nccc(-c2c(-c3ccc(F)cc3)nc3occn23)n1 [LVIII] | 97.9 | 1190 |  | 
